{"source": "patent US20160279098A1", "about": "“NOVEL METHODS” (EUTHYMICS BIOSCIENCE, INC., priority 2013, published 2016)", "assay_type_in_all_cases": "in vivo, human", "key": {"[1]": {"tested_on": "patients with major depressive disorder", "experiment": "Clinical Global Impression of Improvement (CGI-I) in MDD trial", "details": "amitifadine 50 mg or 100 mg; paroxetine 40 mg at both 6 and 12 weeks", "source_text": "(§1) A multicenter, randomized, double blind, placebo- and paroxetine-controlled trial of amitifadine for major depressive disorder (MDD) non-responsive to an adequate trial of an antidepressant therapy in the current depressive episode. A sequential parallel comparison design (SPCD) is utilized. […] The study is 12 weeks in duration, with two 6-week phases. The primary outcome measure is change on the Montgomery Asberg Depression Rating Scale (MADRS). Secondary outcomes include Hamilton Rating Scale for Depression (HAM-D), Clinical Global Impression of Improvement (CGI-I), Sexual Functioning Inventory (SFI), Clinical Global Impression (Improvement and Severity versions), and the Massachusetts General Hospital (MGH) Cognitive and Physical Functioning Questionnaire (MGH-CPFQ). Male and female patients, between the ages of 18-65, are eligible who had MDD, based on the Structured Clinical Interview for DSM Disorders (SCID) interview, and validated by remote raters, a history of non-response to an adequate trial of an antidepressant during the current episode of MDD (an adequate dose for >8 weeks), and a HAM-D-17 score of >18 at screening. […]"}, "[2]": {"tested_on": "patients with major depressive disorder", "experiment": "Sexual Functioning Inventory (SFI) in placebo- and paroxetine-controlled MDD trial", "design": "scale not given here", "details": "LOCF", "source_text": "A sequential parallel comparison design (SPCD) is utilized. […] The study is 12 weeks in duration, with two 6-week phases. The primary outcome measure is change on the Montgomery Asberg Depression Rating Scale (MADRS). Secondary outcomes include Hamilton Rating Scale for Depression (HAM-D), Clinical Global Impression of Improvement (CGI-I), Sexual Functioning Inventory (SFI), Clinical Global Impression (Improvement and Severity versions), and the Massachusetts General Hospital (MGH) Cognitive and Physical Functioning Questionnaire (MGH-CPFQ). Male and female patients, between the ages of 18-65, are eligible who had MDD, based on the Structured Clinical Interview for DSM Disorders (SCID) interview, and validated by remote raters, a history of non-response to an adequate trial of an antidepressant during the current episode of MDD (an adequate dose for >8 weeks), and a HAM-D-17 score of >18 at screening.\n(§2) In addition to standard inclusion criteria the trial requires: 1) diagnosis of MDD, based on the Structured Clinical Interview for DSM Disorders Clinical Trials version (SCID-CT), validated by remote independent raters using the SAFER criteria interview, 2) one and only one antidepressant therapy (ADT) failure in the current episode of MDD, treated with an adequate dose of one of an allowed standard antidepressant (paroxetine or an monoamine oxidase inhibitor (MAOI) not allowed) during the current episode for >6 weeks, with the same, adequate dose for >4 weeks, 3) HAM-D17≧18 at the end of screening phase, 4)<25% reduction in Quick Inventory of Depressive Symptoms Self-Rated (QIDS-SR) score between the screen and baseline visits. Inadequate response: defined as <50% reduction in depressive symptom severity, assessed by the MGH Antidepressant Treatment Response Questionnaire (ATRQ) administered by remote, independent raters (Targum, S. et al., CNS Neuroscience & Therapeutics, 2010, 16 (5), 322-325). An adequate trial is defined as an ADT>6 weeks at least at the minimum dose specified in the MGH ATRQ.\nThe SCID-CT is administered by study clinicians at the screening visit to diagnose Axis I disorders. The remote, independent raters also administer the SAFER Criteria Inventory (SCI) during the screening phase to assess whether the MDD is a “valid” clinical entity.\nThe primary efficacy assessment is the MADRS, administered at every study visit and clinicians complete it by using a structured interview guide developed by Massachusetts General Hospital (MGH). The primary tolerability assessment is the change in the SFI, completed by the patient at every study visit. The MGH-CPFQ, a brief self-report inventory to assess rates of significant cognitive symptoms, sleepiness and fatigue, is filled out by patients at every visit. The Columbia-Suicide Severity Rating Scale (C-SSRS) (Posner K. et al., American Journal of Psychiatry, 2011, 168 (12)1266-77) is administered at every visit. Vital signs are recorded at each visit; physical exam is performed at screen and week 12 (or early termination). Laboratory tests are obtained at screen, baseline, and weeks 2, 4, 6, 8, 10, 12 (or early termination). Twelve-lead ECGs are obtained at screen, baseline, and weeks 3, 6, 9, 12 (or early termination). Consumptive habits (smoking, alcohol, and caffeinated beverages) are recorded at every visit. Adverse events and concomitant medications are collected at every visit."}, "[3]": {"tested_on": "patients with major depressive disorder", "experiment": "Montgomery Asberg Depression Rating Scale (MADRS) in MDD trial", "source_text": "as §1, with “(MGH-CPFQ).” for “(MGH-CPFQ). Male and female patients, between the ages of 18-65, are eligible who had MDD, based on the Structured Clinical Interview for DSM Disorders (SCID) interview, and validated by remote raters, a history of non-response to an adequate trial of an antidepressant during the current episode of MDD (an adequate dose for >8 weeks), and a HAM-D-17 score of >18 at screening.”\nas §2, with “An adequate trial is defined as an ADT>6 weeks at least at the minimum dose specified in the MGH ATRQ.” left out\nThe primary efficacy assessment is the MADRS, administered at every study visit and clinicians complete it by using a structured interview guide developed by Massachusetts General Hospital (MGH). […] Vital signs are recorded at each visit; physical exam is performed at screen and week 12 (or early termination). […]"}, "[4]": {"tested_on": "patients with major depressive disorder", "experiment": "Vital signs (heart rate, blood pressure) in MDD trial", "details": "amitifadine 50 mg and 100 mg", "source_text": "as §1, with “(MGH-CPFQ).” for “(MGH-CPFQ). Male and female patients, between the ages of 18-65, are eligible who had MDD, based on the Structured Clinical Interview for DSM Disorders (SCID) interview, and validated by remote raters, a history of non-response to an adequate trial of an antidepressant during the current episode of MDD (an adequate dose for >8 weeks), and a HAM-D-17 score of >18 at screening.”\nThe primary efficacy assessment is the MADRS, administered at every study visit and clinicians complete it by using a structured interview guide developed by Massachusetts General Hospital (MGH). […] Vital signs are recorded at each visit; physical exam is performed at screen and week 12 (or early termination). […] Consumptive habits (smoking, alcohol, and caffeinated beverages) are recorded at every visit. […]"}, "[5]": {"tested_on": "patients with major depressive disorder", "experiment": "Sexual Functioning Inventory (SFI) in placebo- and paroxetine-controlled MDD trial", "design": "Mean Change from Baseline SFI, Item 3 / Mean Change from Baseline SFI, Item 4 / Mean Change from Baseline SFI, Item 5 / Mean Change from Baseline SFI Total / Mean Change from Baseline SFI, Item 1 / Mean Change from Baseline SFI, Item 2: scale not given here", "details": "amitifadine 100 mg"}, "[6]": {"details": "both genders, amitifadine 100 mg vs paroxetine 40 mg"}, "[7]": {"details": "female, amitifadine 100 mg, compare vs placebo"}, "[8]": {"details": "LOCF, female, compare vs placebo"}}}
{"smiles": "Fc1ccc([C@@H]2CCNC[C@H]2COc2ccc3c(c2)OCO3)cc1", "note": "[Paroxetine, reference compound]", "values": [{"measurement": "CGI-Improvement compared to placebo", "setting": "[1]", "result": "significant difference"}, {"measurement": "Mean Change from Baseline SFI Total", "setting": "[2]; [6]", "result": "−1.52"}, {"measurement": "Mean Change from Baseline SFI, Item 1", "setting": "[2]; [6]", "result": "−0.57"}, {"measurement": "Mean Change from Baseline SFI, Item 2", "setting": "[2]; [6]", "result": "−0.45"}, {"measurement": "Mean Change from Baseline SFI, Item 3", "setting": "[2]; [6]", "result": "−0.27"}, {"measurement": "Mean Change from Baseline SFI, Item 4", "setting": "[2]; [6]", "result": "−0.13"}, {"measurement": "Mean Change from Baseline SFI, Item 5", "setting": "[2]; [6]", "result": "−0.23"}, {"measurement": "improvement compared to both placebo and amitifadine 50 mg", "setting": "[3]; exploratory analyses, paroxetine 40 mg", "result": "significantly better improvement"}]}
{"smiles": "Clc1ccc([C@]23CNC[C@H]2C3)cc1Cl", "note": "[Amitifadine]", "values": [{"measurement": "CGI-Improvement compared to placebo", "setting": "[1]", "result": "no significant differences"}, {"measurement": "Mean Change from Baseline SFI Total", "setting": "[2]; [6]", "result": "−3.86"}, {"measurement": "Mean Change from Baseline SFI, Item 1", "setting": "[2]; [6]", "result": "−1.02"}, {"measurement": "Mean Change from Baseline SFI, Item 2", "setting": "[2]; [6]", "result": "−1.00"}, {"measurement": "Mean Change from Baseline SFI, Item 3", "setting": "[2]; [6]", "result": "−0.80"}, {"measurement": "Mean Change from Baseline SFI, Item 4", "setting": "[2]; [6]", "result": "−0.79"}, {"measurement": "Mean Change from Baseline SFI, Item 5", "setting": "[2]; [6]", "result": "−1.00"}, {"measurement": "Mean Change from Baseline SFI, Item 2", "setting": "[2]; [7]", "result": "−1.12"}, {"measurement": "Mean Change from Baseline SFI, Item 5", "setting": "[2]; [7]", "result": "−1.09"}, {"measurement": "difference between paroxetine and amitifadine 100 mg in improvement", "setting": "[3]; exploratory analyses", "result": "non-significant"}, {"measurement": "MADRS change from baseline compared to placebo", "setting": "[3]; primary analysis, amitifadine 50 mg or 100 mg, paroxetine 40 mg", "result": "no significant difference"}, {"measurement": "changes in heart rate or blood pressure", "setting": "[4]", "result": "Neither dose is associated with significant changes"}, {"measurement": "Mean Change from Baseline SFI Total", "setting": "[5]; [8]", "result": "−4.41"}, {"measurement": "Mean Change from Baseline SFI, Item 1", "setting": "[5]; [8]", "result": "−1.16"}, {"measurement": "Mean Change from Baseline SFI, Item 3", "setting": "[5]; [8]", "result": "−0.97"}, {"measurement": "Mean Change from Baseline SFI Total", "setting": "[5]; LOCF, male, compare vs placebo", "result": "−3.12"}, {"measurement": "Mean Change from Baseline SFI, Item 1", "setting": "[5]; LOCF, male, compare vs placebo", "result": "−0.83"}, {"measurement": "Mean Change from Baseline SFI, Item 2", "setting": "[5]; LOCF, male, compare vs placebo", "result": "−0.83"}, {"measurement": "Mean Change from Baseline SFI, Item 3", "setting": "[5]; LOCF, male, compare vs placebo", "result": "−0.58"}, {"measurement": "Mean Change from Baseline SFI, Item 4", "setting": "[5]; LOCF, male, compare vs placebo", "result": "−0.79"}, {"measurement": "Mean Change from Baseline SFI, Item 5", "setting": "[5]; LOCF, male, compare vs placebo", "result": "−0.88"}, {"measurement": "individual items of the SFI (anorgasmia, arousal, overall satisfaction) versus paroxetine", "setting": "[5]; most individual items", "result": "significantly less impairing"}, {"measurement": "SFI change from baseline compared with placebo in women", "setting": "[5]; post-hoc analyses by gender, women", "result": "significant improvement"}]}
